Source: US6569864B1, “Pharmaceutical agents containing acyclovir, fusaric acid and derivatives thereof” (Novactyl, Inc., priority 2001, dated 2003)
In brackets after ≈: the same amount, converted by molar mass. Like-named read-outs stand apart in the source and are kept apart here.

Assays:
[1] = test system: herpes labialis; details: cited from earlier work
[2] = test system: HSV-1; assay: plaque reduction assay, HSV-1 in Vero cells; format: cell-based; details: for cell death observed under microscope: HSV-1 infected Vero cells
Procedure: (§1) Herpes simplex virus standard strains G (HSV-2) and F (HSV-1) were used in each Example. Virus input for a 6-well plate was 200 pfu/well. HSV susceptible cell line, Vero cells, were used in the virus yield reduction assay. The culture medium for Vero cells is 5% Minimum Essential Medium GIBCO/BRL (MEM) supplemented with 5% fetal bovine serum (200 U/ml penicillin and 200 μg/ml streptomycin).
(§2) To examine the efficacy of fusaric acid on HSV-1 and HSV-2, the susceptible cells were infected with either HSV-1 or HSV-2, then incubated with fusaric acid at concentrations of 0, 1, 10, 30, 60, and 100 μg/ml. The antiviral effect was then determined by plaque reduction assay.
(§3) Confluent cells were washed with PBS and infected with either HSV-1 or HSV-2 (200 pfu/well) for 1 hour at 37° C. The cells were tilled every 20 minutes. After viral inoculum was removed, infected cells were washed with PBS and overlaid with 0.5% methylcellulose in culture medium (equal volume of 1% methylcellulose mixed with 2 times culture medium) containing different doses of testing compounds. The cells were incubated at 37° C. for 2 days for HSV-2 infection and 3 days for HSV-1.
(§4) After plaque size was adequate, the cells were fixed with 20% formalin for 20 minutes and stained with 0.5% crystal violet for 20 minutes. The dye was removed by washing with tap water and left to dry in a fume hood. The plaques were then counted. The experiment was repeated.
(§5) Mean plaque counts in test wells were compared with mean plaque counts in wells not containing the compound (control wells). The antiviral effects of fusaric acid on HSV-1 and HSV-2 are summarized in Table 1 and the antiviral effect of fusaric acid on HSV as determined by plaque reduction assay is shown in FIG. 1.
(§6) EC90-100 (effective concentration giving 90-100% plaque reduction) was approximately 30 μg/ml for both HSV-1 and HSV-2. Control was calculated as the mean plaque count in the drug treated wells divided by the mean plaque count in the control wells. The concentrations giving a 50% reduction in the plaque count of the inoculum (EC50) was then calculated using computer software.
(§7) To examine the efficacy of the combination of fusaric acid and acyclovir on HSV-1 and HSV-2, the plaque reduction assay technique described in Example 1 was employed. The susceptible cells were infected with HSV-1 then incubated with a combination of fusaric acid at concentrations of 0, 1, 10, 30 and 60 μg/ml and […] acyclovir. Similarly, other susceptible cells were infected with HSV-2 then incubated with a combination of […] at concentrations of 0, 1, 10, 30, and 60 μg/ml and 6.1 μM acyclovir. A control was used in each instance, which comprised neither picolinic acid nor acyclovir.

[3] = test system: HSV-2; assay: plaque reduction assay, HSV-2 in Vero cells; format: cell-based; details: for cell death observed under microscope: HSV-2 infected Vero cells
Procedure: as §1, §2, §3, §4, §5, §6, §7

[4] = test system: Vero cells; assay: cytotoxicity by neutral red dye uptake assay; format: cell-based
Procedure: (§8) The cytotoxic effects of picolinic acid and fusaric acid were examined on Vero cells using neutral red dye uptake assay. Confluent Vero cells were cultured in a medium containing various doses of picolinic acid for two days. The testing concentrations were 0, 10, 100, 250, 500 and 1000 μg/ml for picolinic acid and 0, 1, 10, 50, 100 and 500 μg/ml for fusaric acid. Culture medium was removed from confluent Vero cells in a 96-well plate by pump. The cells were then washed once with 200 μl of PBS. 200 μl culture medium containing varying concentrations of either picolinic acid or fusaric acid was added to each well. The cells were then incubated with […] at 37° C. for two days. At the end of incubation, the medium was removed and the cells washed with PBS. 200 μl of 0.01% neutral red in PBS was subsequently added to each well and incubated at 37° C. for 30 minutes The dye was then removed and the cells washed twice with 200 μl PBS per well. The dye was extracted by addition of 200 μl of 50% ethanol/1% glacial acetic acid in PBS to each well and incubated at room temperature for 15 minutes with gentle shaking at 120-150 rpm. The absorbance at 550 nm was read on an enzyme-linked immunosorbent assay (ELISA) reader. The toxicity profiles of picolinic acid and fusaric acid on Vero cells analyzed from optical absorbance readings are shown in Table 2.

[5] = cytotoxicity by neutral red dye uptake assay; format: cell-based; details: African green monkey
Procedure: as §8

Nc1nc2c(ncn2COCCO)c(=O)[nH]1 [Acyclovir, 2-amino-1,9-dihydro-9-[(2-hydroxyethoxy)metyl]-6H-purin-6-one]
efficacy against herpes labialis and herpes genitalis (in words) ([1]; topical formulation): not effective | HSV-1 (% of control) ([2]; acyclovir 1.75 μM, fusaric acid 0 μg/ml): 62.9 % of control | HSV-2 (% of control) ([3]; acyclovir 6.1 μM, fusaric acid 0 μg/ml): 42.9 % of control

CCCCc1ccc(C(=O)O)nc1 [Fusaric acid]
Toxicity (% of control) ([4]; 1 μg/ml, Vero cells, two days): 101 % of control | Toxicity (% of control) ([4]; 10 μg/ml, Vero cells, two days): 76 % of control | Toxicity (% of control) ([4]; 50 μg/ml, Vero cells, two days): 55 % of control | Toxicity (% of control) ([4]; 100 μg/ml, Vero cells, two days): 49 % of control | Toxicity (% of control) ([4]; 500 μg/ml, Vero cells, two days): 16 % of control | CC50 at 2 days ([5]; Vero cells, read-out: cytotoxic concentration giving 50% of cell death (CC50)): ~100 µg/mL (≈ 0.558 mM) | effect on HSV-1 (in words) ([2]; 10 μg/ml fusaric acid alone): no effect | EC90 ([2]; Human alphaherpesvirus 1, Vero, read-out: EC90-100 (effective concentration giving 90-100% plaque reduction)): ~30 µg/mL | HSV-1 plaque count (% of control) ([2]; fusaric acid 1 μg/ml): 101 % of control | HSV-1 plaque count (% of control) ([2]; fusaric acid 10 μg/ml): 105 % of control | HSV-1 plaque count (% of control) ([2]; fusaric acid 30 μg/ml): 0 % of control | HSV-1 plaque count (% of control) ([2]; fusaric acid 60 μg/ml): 0 % of control | cell death observed under microscope ([2]; fusaric acid 60 μg/ml): + (˜20% cell death observed under microscope) | HSV-1 plaque count (% of control) ([2]; fusaric acid 100 μg/ml): 0 % of control | cell death observed under microscope ([2]; fusaric acid 100 μg/ml): ++ (˜50% cell death observed under microscope) | effect on HSV-2 (in words) ([3]; 10 μg/ml fusaric acid alone): no effect | EC90 ([3]; Human alphaherpesvirus 2, Vero, read-out: EC90-100 (effective concentration giving 90-100% plaque reduction)): ~30 µg/mL | HSV-2 plaque count (% of control) ([3]; fusaric acid 1 μg/ml): 103 % of control | HSV-2 plaque count (% of control) ([3]; fusaric acid 10 μg/ml): 101 % of control | HSV-2 plaque count (% of control) ([3]; fusaric acid 30 μg/ml): 0 % of control | HSV-2 plaque count (% of control) ([3]; fusaric acid 60 μg/ml): 0 % of control | cell death observed under microscope ([3]; fusaric acid 60 μg/ml): + (˜20% cell death observed under microscope) | HSV-2 plaque count (% of control) ([3]; fusaric acid 100 μg/ml): 0 % of control | cell death observed under microscope ([3]; fusaric acid 100 μg/ml): ++ (˜50% cell death observed under microscope)

O=C(O)c1ccccn1 [Picolinic acid, reference compound]
Toxicity (% of control) ([4]; African green monkey, 2 days, 10 μg/ml): 105 % of control | Toxicity (% of control) ([4]; African green monkey, 2 days, 100 μg/ml): 95 % of control | Toxicity (% of control) ([4]; African green monkey, 2 days, 250 μg/ml): 70 % of control | Toxicity (% of control) ([4]; African green monkey, 2 days, 500 μg/ml): 57 % of control | Toxicity (% of control) ([4]; African green monkey, 2 days, 1000 μg/ml): 45 % of control | CC50 at 2 days [5]: ~800 µg/mL (≈ 6.5 mM)

Nc1nc2c(ncn2CCC(CO)CO)c(=O)[nH]1 [denavir]
reduction of the median duration of the illness ([1]; herpes labialis, typically lasting about 6 to 7 days): 6 h
